Data published in US11999727B2 (Tango Therapeutics, Inc., priority 2020, dated 2024).

Legend:
[1] = tested on: HAP1 MTAP-deleted cell line; assay: Viability assay, MTAP-deleted cell line; assay type: cell-based; details: Homo sapiens, read-out: HAP1 MTAP deleted viability
Description: Table 1 additionally indicates IC50 values in a viability assay for the MTAP-deleted cell line (column 10), indicating the effect of treatment with compound on cell survival.

[2] = tested on: HAP1 MTAP-intact cell line; assay: SDMA in-cell western assay, HAP1 MTAP-intact; assay type: cell-based; details: Homo sapiens, HAP1, SDMA in-cell western, HAP1 MTAP-intact; read-out: MTAP HAP1 intact IC50
Method in brief: (§1)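 Readout: in-cell western detection of SDMA. Cells: HAP1 expressing endogenous MTAP and an MTAP-null HAP1 counterpart. Output: IC50.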

[3] = tested on: HAP1 MTAP-deleted cell line; assay: SDMA in-cell western assay, HAP1 MTAP-deleted; assay type: cell-based; details: for IC50: Homo sapiens, HAP1, SDMA in-cell western, HAP1 MTAP-deleted; for MTAP intact/deleted ratio: SDMA in-cell western
Method in brief: as §1

[4] = biological target: T1, PRMT5 (Homo sapiens, UniProt O14744); assay: PRMT5 biochemical IC50 assay with no cofactor; details: PRMT5, no cofactor
T1 construct: purchased Viva (custom protein)
T1 sequence (O14744 whole entry): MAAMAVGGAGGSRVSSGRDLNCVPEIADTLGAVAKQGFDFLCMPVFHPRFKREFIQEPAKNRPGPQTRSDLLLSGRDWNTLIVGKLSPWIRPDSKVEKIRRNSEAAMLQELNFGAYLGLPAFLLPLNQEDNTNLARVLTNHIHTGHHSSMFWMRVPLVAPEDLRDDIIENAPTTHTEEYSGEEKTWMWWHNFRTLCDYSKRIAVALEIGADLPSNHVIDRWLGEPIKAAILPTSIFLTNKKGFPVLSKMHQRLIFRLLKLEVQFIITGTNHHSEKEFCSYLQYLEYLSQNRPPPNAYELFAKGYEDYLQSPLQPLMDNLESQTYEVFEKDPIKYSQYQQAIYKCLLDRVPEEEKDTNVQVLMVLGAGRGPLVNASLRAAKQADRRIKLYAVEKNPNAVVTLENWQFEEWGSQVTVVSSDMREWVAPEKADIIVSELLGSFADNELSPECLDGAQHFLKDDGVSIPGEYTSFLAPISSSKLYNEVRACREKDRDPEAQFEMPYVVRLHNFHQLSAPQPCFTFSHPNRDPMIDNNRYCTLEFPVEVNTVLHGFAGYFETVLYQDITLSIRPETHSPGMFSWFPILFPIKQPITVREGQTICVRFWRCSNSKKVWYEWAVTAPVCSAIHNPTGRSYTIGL
T1 sequence (Q9BQA1 whole entry partner): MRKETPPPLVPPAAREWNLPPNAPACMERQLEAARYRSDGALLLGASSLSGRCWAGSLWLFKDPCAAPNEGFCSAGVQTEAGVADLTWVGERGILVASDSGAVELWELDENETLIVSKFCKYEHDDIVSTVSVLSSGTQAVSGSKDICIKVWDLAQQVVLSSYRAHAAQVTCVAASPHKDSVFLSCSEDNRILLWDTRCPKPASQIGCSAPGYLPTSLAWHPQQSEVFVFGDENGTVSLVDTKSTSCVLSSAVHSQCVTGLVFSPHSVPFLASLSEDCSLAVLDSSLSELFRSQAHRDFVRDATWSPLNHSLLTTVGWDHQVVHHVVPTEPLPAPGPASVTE
Description: Table 1 indicates IC50 values (μM) against PRMT5 for exemplary compounds in the presence of SAM as cofactor, with no cofactor, and with MTA as cofactor, respectively (columns 4-6). […] Ki values can be calculated from the IC50 values as described in the Examples section. As detailed in the Examples section, for the assay performed in the presence of SAM, IC50=Ki×1.5 (Ki=IC50/1.5).

[5] = biological target: T1, PRMT5; assay: PRMT5 biochemical IC50 assay with SAM as cofactor; details: PRMT5, SAM as cofactor; read-out: SAM IC50
[6] = biological target: T1, PRMT5; assay: PRMT5 biochemical IC50 assay with MTA as cofactor; details: PRMT5, MTA as cofactor; read-out: MTA IC50
[7] = HAP1, viability assay, MTAP-deleted cell line
[8] = read-out: HAP1 MTAP deleted IC50
[9] = IC50 ratio HAP1 MTAP-intact / HAP1 MTAP-deleted
[10] = read-out: HAP 1 MTAP deleted IC50
[11] = read-out: No Cofactor/ rel IC50
[12] = IC50 ratio HAP1 MTAP-intact vs HAP1 MTAP-deleted

| Structure (SMILES) | IC50 [2] [nM] | IC50 [3, 8] [nM] | IC50 ([4]; read-out: No Cofactor/rel IC50) [nM] | IC50 [5] [nM] | IC50 [6] [nM] | IC50 [3, 10] [nM] | IC50 [4, 11] [nM] | IC50 [1, 7] [µM] | MTAP intact/deleted ratio [3, 9] | IC50 ([1]; HAP1, viability, HAP1 MTAP-deleted cell line) [µM] | MTAP intact/deleted ratio [3, 12] |
| --- | --- | --- | --- | --- | --- | --- | --- | --- | --- | --- | --- |
| Cc1cc(NC(=O)C(=O)N2CCCCC2c2ccncc2)cnc1N (racemic) [Compound 36, N-(6-Amino-5-methyl-3-pyridyl)-2-oxo-2-[2-(4-pyridyl)-1-piperidyl]acetamide] | > 1000 |  |  | 50 to 500 | < 50 | 100 to 1000 | 50 to 500 | > 10 | A (an IC50 ratio greater than or equal to 10 fold) |  |  |
| CNC(=O)c1cccc([C@H]2CC[C@H](C)CN2C(=O)C(=O)Nc2cncc(C)c2)c1 (racemic) [Compound 48, N-methyl-3-[(2R,5S)-5-methyl-1-[2-[(5-methyl-3-pyridyl)amino]-2-oxo-acetyl]-2-piperidyl]benzamide] | > 1000 |  |  | 50 to 500 | 50 to 500 | > 1000 | 50 to 500 | > 10 | C (an IC50 ratio of less than 3 fold) |  |  |
| Cc1cncc(NC(=O)C(=O)N2C[C@@H](C)CC[C@@H]2c2cccs2)c1 (single isomer, unassigned) [Compound 76] | > 1000 |  |  | > 500 | > 500 |  | > 500 | > 10 |  |  |  |
| COc1ncc(NC(=O)C(=O)N2C[C@H](C)CC[C@H]2c2ccc3nn(C)cc3c2)cc1C(N)=O (single isomer, unassigned) [Compound 1051] | > 1000 |  | > 500 | > 500 | > 500 | > 1000 |  |  | B (an IC50 ratio greater than or equal to 3 fold but lower than 10 fold) |  |  |
| Cc1cc(NC(=O)C(=O)N2C[C@@H](C)CC[C@H]2C23CC(C(N)=O)(C2)C3)cnc1N (single isomer, unassigned) [Compound 1053] | > 1000 |  | > 500 | > 500 | 50 to 500 | 100 to 1000 |  |  | A (an IC50 ratio greater than or equal to 10 fold) |  |  |
| CCc1cc(NC(=O)C(=O)N2C[C@H](C)CC[C@H]2c2cc3cn[nH]c3s2)cnc1N (single isomer, unassigned) [Compound 1055] | > 1000 |  | > 500 | > 500 | > 500 | > 1000 |  |  | B (an IC50 ratio greater than or equal to 3 fold but lower than 10 fold) |  |  |
| COc1ncc(NC(=O)C(=O)N2C[C@@H](C)CC[C@@H]2c2ccc3nn(C)cc3c2)cc1C(N)=O (single isomer, unassigned) [Compound 1059] | > 1000 |  | 50 to 500 | 50 to 500 | < 50 | < 100 |  |  | A (an IC50 ratio greater than or equal to 10 fold) |  |  |
| Cc1cc(NC(=O)C(=O)N2C[C@@H](C)CC[C@@H]2C23CC(C(N)=O)(C2)C3)cnc1N (single isomer, unassigned) [Compound 1061] | > 1000 | > 1000 | > 500 | > 500 | > 500 |  |  |  |  |  | B (an IC50 ratio greater than or equal to 3 fold but lower than 10 fold) |
| COc1ncc(NC(=O)C(=O)N2C[C@H](C)C(F)(F)C[C@H]2c2ccc(F)cc2)cc1C(N)=O (single isomer, unassigned) [Compound 1068] | > 1000 | < 100 | 50 to 500 | 50 to 500 | < 50 |  |  |  |  |  | A (an IC50 ratio greater than or equal to 10 fold) |
| Cc1cc(NC(=O)C(=O)N2C[C@H](C)CC[C@H]2C23CC(C(N)=O)(C2)C3)cnc1N (single isomer, unassigned) [Compound 1070] | > 1000 | > 1000 | > 500 | > 500 | > 500 |  |  |  |  |  | B (an IC50 ratio greater than or equal to 3 fold but lower than 10 fold) |
| Cc1cc(NC(=O)C(=O)N2C[C@@H](C)CC[C@@H]2c2cc[nH]n2)cnc1N (single isomer, unassigned) [Compound 1071] | > 1000 | > 1000 | 50 to 500 | 50 to 500 | < 50 |  |  |  |  |  | C (an IC50 ratio of less than 3 fold) |
| COc1ncc(NC(=O)C(=O)N2C[C@@H](C)CC[C@@H]2c2ccc(F)cc2)cc1C(F)F [Compound 1057, N-[5-(Difluoromethyl)-6-methoxy-3-pyridyl]-2-[(2R,5S)-2-(4-fluorophenyl)-5-methyl-1-piperidyl]-2-oxo-acetamide] | > 1000 |  | 50 to 500 | > 500 | 50 to 500 | > 1000 |  |  | B (an IC50 ratio greater than or equal to 3 fold but lower than 10 fold) |  |  |

Continued, in another order:

| IC50 [2] [nM] | IC50 [3, 8] [nM] | IC50 ([4]; read-out: No Cofactor/rel IC50) [nM] | IC50 [5] [nM] | IC50 [6] [nM] | IC50 [3, 10] [nM] | IC50 [4, 11] [nM] | Structure (SMILES) | IC50 [1, 7] [µM] | MTAP intact/deleted ratio [3, 9] | IC50 ([1]; HAP1, viability, HAP1 MTAP-deleted cell line) [µM] | MTAP intact/deleted ratio [3, 12] |
| --- | --- | --- | --- | --- | --- | --- | --- | --- | --- | --- | --- |
| > 1000 | 100 to 1000 | 50 to 500 | > 500 | 50 to 500 |  |  | Cc1cc(NC(=O)C(=O)N2CC(C)CC(C)C2c2ccccc2)cnc1N (mixture of isomers) [Compound 314, N-(6-amino-5-methyl-3-pyridyl)-2-(3,5-dimethyl-2-phenyl-1-piperidyl)-2-oxo-acetamide] | 1 to 10 | A (an IC50 ratio greater than or equal to 10 fold) |  |  |
| < 100 |  |  | 50 to 500 | < 50 | < 100 | < 50 | CCc1cc(NC(=O)C(=O)N2C[C@@H](C)CC[C@@H]2c2ccc3sc(CC(C)N(C)C)nc3c2)cnc1N (mixture of isomers) [Compound 1345, N-(6-amino-5-ethylpyridin-3-yl)-2-((2R,5S)-2-(2-(2-(dimethylamino)propyl)benzo[d]thiazol-5-yl)-5-methylpiperidin-1-yl)-2-oxoacetamide] |  | A (an IC50 ratio greater than or equal to 10 fold) | < 1 |  |
| > 1000 |  |  | > 500 | 50 to 500 | > 1000 | > 500 | Cc1cncc(NC(=O)C(=O)N2C[C@H](C)CC[C@H]2c2cccc(C)c2)c1 (racemic) [Compound 8, rac-2-[(2R,5S)-5-methyl-2-(m-tolyl)-1-piperidyl]-N-(5-methyl-3-pyridyl)-2-oxo-acetamide] | > 10 | C (an IC50 ratio of less than 3 fold) |  |  |
| > 1000 |  |  | > 500 | 50 to 500 | > 1000 | > 500 | Cc1cncc(NC(=O)C(=O)N2C[C@H](C)CC[C@H]2c2cccc(Cl)c2)c1 (racemic) [Compound 13, 2-[(2R,5S)-2-(3-chlorophenyl)-5-methyl-1-piperidyl]-N-(5-methyl-3-pyridyl)-2-oxo-acetamide] | > 10 | C (an IC50 ratio of less than 3 fold) |  |  |
| > 1000 |  |  | 50 to 500 | 50 to 500 | > 1000 | > 500 | Cc1cncc(NC(=O)C(=O)N2C[C@H](C)CC[C@H]2c2ccnc(C)c2)c1 (racemic) [Compound 14, 2-[(2S,5R)-5-methyl-2-(2-methyl-4-pyridyl)-1-piperidyl]-N-(5-methyl-3-pyridyl)-2-oxo-acetamide] | > 10 | C (an IC50 ratio of less than 3 fold) |  |  |
| > 1000 |  |  | 50 to 500 | 50 to 500 | > 1000 | 50 to 500 | COc1cccc([C@@H]2CC[C@@H](C)CN2C(=O)C(=O)Nc2cncc(C)c2)c1 (racemic) [Compound 28, rac-2-((2R,5S)-2-(3-methoxyphenyl)-5-methylpiperidin-1-yl)-N-(5-methylpyridin-3-yl)-2-oxoacetamide] | > 10 | C (an IC50 ratio of less than 3 fold) |  |  |
| > 1000 |  |  | 50 to 500 | < 50 | 100 to 1000 | 50 to 500 | Cc1cccc(C2CCCCN2C(=O)C(=O)Nc2cnc(N)c(C)c2)c1 (racemic) [Compound 31, N-(6-Amino-5-methyl-3-pyridyl)-2-[2-(m-tolyl)-1-piperidyl]-2-oxo-acetamide] | > 10 | A (an IC50 ratio greater than or equal to 10 fold) |  |  |
| 100 to 1000 | < 100 | < 50 | 50 to 500 | < 50 |  |  | CCc1cc(NC(=O)C(=O)N2C[C@@H](C)CC[C@@H]2c2cc3cn[nH]c3s2)cnc1N (single isomer, unassigned) [Compound 1075] |  |  |  | A (an IC50 ratio greater than or equal to 10 fold) |
